One compound from ChEMBL document CHEMBL1134625 (J Med Chem, 2001) can be followed below.

Test [1] addresses Cannabinoid receptor 1 (Homo sapiens, UniProt P21554).
In test [2] the target is T1, Adrenergic receptor alpha-1 (Homo sapiens, UniProt P35348+P25100+P35368).
T1 sequence (P35348 whole entry): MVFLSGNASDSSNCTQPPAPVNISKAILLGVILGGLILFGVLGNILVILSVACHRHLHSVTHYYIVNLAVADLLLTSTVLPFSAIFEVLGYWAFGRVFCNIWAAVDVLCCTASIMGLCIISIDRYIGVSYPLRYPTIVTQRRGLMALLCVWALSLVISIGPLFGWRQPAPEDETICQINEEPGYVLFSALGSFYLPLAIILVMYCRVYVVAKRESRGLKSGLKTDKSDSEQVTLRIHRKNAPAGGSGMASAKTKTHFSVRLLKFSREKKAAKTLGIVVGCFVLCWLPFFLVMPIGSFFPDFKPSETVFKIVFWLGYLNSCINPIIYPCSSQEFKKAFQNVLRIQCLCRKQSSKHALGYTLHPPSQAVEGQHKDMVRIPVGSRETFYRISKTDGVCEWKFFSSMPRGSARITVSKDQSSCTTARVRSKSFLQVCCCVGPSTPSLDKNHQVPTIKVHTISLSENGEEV
T1 sequence (P25100 whole entry): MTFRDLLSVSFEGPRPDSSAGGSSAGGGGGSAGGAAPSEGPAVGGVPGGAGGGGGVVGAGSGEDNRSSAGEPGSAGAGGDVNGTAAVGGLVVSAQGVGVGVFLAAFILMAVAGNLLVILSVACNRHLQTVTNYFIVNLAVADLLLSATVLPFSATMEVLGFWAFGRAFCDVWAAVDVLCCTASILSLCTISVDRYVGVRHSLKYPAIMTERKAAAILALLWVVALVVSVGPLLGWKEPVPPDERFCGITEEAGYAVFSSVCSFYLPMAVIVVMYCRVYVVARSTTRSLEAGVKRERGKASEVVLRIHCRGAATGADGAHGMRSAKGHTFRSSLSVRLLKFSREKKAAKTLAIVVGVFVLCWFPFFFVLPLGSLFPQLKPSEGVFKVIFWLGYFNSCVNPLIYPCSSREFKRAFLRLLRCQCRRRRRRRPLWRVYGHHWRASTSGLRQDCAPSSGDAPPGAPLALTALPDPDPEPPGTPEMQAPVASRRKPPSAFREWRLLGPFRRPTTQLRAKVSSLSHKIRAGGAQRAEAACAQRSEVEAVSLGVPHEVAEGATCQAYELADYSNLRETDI
T1 sequence (P35368 whole entry): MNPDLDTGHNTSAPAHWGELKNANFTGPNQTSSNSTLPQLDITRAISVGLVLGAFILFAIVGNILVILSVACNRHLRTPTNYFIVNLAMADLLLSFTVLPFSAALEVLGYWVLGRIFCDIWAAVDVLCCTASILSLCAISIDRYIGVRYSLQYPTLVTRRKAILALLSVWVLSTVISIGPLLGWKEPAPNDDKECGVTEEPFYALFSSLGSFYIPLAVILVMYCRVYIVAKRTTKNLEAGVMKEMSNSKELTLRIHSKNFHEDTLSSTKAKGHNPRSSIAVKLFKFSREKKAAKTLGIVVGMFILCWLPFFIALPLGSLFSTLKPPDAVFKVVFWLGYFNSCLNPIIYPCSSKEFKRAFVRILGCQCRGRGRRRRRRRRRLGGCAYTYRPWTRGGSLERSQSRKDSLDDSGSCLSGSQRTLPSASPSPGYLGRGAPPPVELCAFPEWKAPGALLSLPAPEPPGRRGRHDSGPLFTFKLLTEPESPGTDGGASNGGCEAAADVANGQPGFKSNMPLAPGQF
The format is protein assay.

Test [3] concerns the target T2, 5-hydroxytryptamine receptor 2C (Homo sapiens, UniProt P28335).
T2 sequence (P28335 whole entry): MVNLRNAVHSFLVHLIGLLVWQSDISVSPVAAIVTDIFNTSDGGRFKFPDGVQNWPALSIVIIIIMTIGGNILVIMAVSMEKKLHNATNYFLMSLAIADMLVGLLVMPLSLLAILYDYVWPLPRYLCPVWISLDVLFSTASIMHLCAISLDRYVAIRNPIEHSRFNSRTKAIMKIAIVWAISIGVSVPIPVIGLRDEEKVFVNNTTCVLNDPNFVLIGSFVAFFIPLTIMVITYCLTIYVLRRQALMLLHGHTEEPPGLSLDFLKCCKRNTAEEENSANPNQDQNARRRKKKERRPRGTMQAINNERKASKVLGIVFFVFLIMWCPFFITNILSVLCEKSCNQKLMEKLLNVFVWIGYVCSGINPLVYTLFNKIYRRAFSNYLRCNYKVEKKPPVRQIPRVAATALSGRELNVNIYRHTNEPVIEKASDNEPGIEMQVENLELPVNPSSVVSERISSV

In test [4] the target is Sodium-dependent noradrenaline transporter (Homo sapiens, UniProt P23975).
For test [5], the target named is Voltage-gated L-type calcium channel (Homo sapiens, UniProt Q13936+Q13698+Q01668+O60840). The format is protein assay.

Sodium-dependent noradrenaline transporter, sequence (P23975 whole entry): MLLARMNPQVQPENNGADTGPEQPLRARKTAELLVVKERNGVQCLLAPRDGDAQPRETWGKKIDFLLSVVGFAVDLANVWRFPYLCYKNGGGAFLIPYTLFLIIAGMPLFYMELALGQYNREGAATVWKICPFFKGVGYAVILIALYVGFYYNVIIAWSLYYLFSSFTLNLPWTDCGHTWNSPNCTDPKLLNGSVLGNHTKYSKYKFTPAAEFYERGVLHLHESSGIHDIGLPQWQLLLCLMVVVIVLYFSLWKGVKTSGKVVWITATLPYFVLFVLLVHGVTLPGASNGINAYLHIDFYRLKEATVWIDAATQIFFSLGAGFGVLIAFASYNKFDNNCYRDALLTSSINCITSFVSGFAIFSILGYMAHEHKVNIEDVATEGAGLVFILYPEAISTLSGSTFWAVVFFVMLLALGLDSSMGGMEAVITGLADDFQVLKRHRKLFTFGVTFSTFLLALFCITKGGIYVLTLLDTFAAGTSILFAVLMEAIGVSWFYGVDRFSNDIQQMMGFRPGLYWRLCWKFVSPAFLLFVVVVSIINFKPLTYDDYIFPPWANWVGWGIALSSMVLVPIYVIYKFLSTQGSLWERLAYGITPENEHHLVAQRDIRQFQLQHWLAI
Cannabinoid receptor 1, sequence (P21554 whole entry): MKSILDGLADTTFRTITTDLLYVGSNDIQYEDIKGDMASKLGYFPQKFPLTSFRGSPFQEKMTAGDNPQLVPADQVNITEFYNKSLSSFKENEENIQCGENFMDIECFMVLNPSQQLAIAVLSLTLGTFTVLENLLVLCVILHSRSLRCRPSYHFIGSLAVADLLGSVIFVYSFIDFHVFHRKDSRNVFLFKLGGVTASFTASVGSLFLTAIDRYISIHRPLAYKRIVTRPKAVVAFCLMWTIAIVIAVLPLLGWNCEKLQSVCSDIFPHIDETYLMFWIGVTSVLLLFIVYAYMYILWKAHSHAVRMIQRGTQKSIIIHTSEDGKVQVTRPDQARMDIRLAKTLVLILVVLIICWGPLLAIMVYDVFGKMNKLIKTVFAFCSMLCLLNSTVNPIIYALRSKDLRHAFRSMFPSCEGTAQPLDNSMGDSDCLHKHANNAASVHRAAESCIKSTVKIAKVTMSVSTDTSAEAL

As a reminder, the IC50 is the midpoint of a concentration-inhibition curve. Turning to `N#Cc1ccc(CCOC(=O)NC2CCN(CCCC(c3ccc(F)cc3)c3ccc(F)cc3)CC2)cc1`, the IC50 was determined as 6.09 µM in test [1]; 417 nM in test [2]; 2760 nM in test [3]; 1140 nM in test [4]; 284 nM in test [5].
